Like-named read-outs stand apart in the source and are kept apart here. Marks after values point to notes of the source that are not given here.
Tests used:
[1] = test system: commercial broilers (trials 1 and 2), SPF broilers (trial 3); type: in vivo, chicken; conditions: all three trials, vs saline controls
[2] = test system: commercial broilers (trials 1 and 2), SPF broilers (trial 3); conditions: in vivo
[3] = test system: commercial broilers (trials 1 and 2), SPF broilers (trial 3); conditions: in vivo; remark: listed apart in the source
[4] = test system: commercial broilers (trials 1 and 2), SPF broilers (trial 3); conditions: 7 dpi
[5] = test system: commercial broilers (trials 1 and 2), SPF broilers (trial 3); conditions: in vivo; remark: listed apart in the source
chickens = test system: chickens; design: species or system chicken; conditions: in vivo
2 week-old chickens = type: in vivo, chicken; conditions: for CBH-2 = (skin thickness, PHA-P injected foot) − (skin thickness, PSS injected foot) / CBH-1 = (skin thickness at 12 h post-injection, left foot) − (pre-injection skin thickness, left foot): 2 week-old chickens, mean ± standard deviation, n = 4; for CBH-1 = (skin thickness at 12 h post-injection, left foot) − (pre-injection skin thickness, left foot): PHA-P

## O=P1(N(CCCl)CCCl)NCCCO1 (stereo not shown) [CP, Cyclophosphamide monohydrate]
[1]
  bursa size: significantly smaller
[2]
  clinical appearance: decreased feathering and appeared weak
[3]
  Proventriculus score (severity of proventricular lesions): 1.00^a
[4]
  thymus size: smaller than the rest of the groups
[5]
  bursal microscopic lesions: marked lymphocytic depletion and atrophy of the bursa
chickens
  humoral immune response to NDV vaccination: significantly reduced
2 week-old chickens; Trial 1, IBDV strain Variant E
  CBH-2 = (skin thickness, PHA-P injected foot) − (skin thickness, PSS injected foot): .73 ± .01
  CBH-1 = (skin thickness at 12 h post-injection, left foot) − (pre-injection skin thickness, left foot): .67 ± .07
2 week-old chickens; Trial 2, IBDV strain STC
  CBH-2 = (skin thickness, PHA-P injected foot) − (skin thickness, PSS injected foot): .69 ± .2
  CBH-1 = (skin thickness at 12 h post-injection, left foot) − (pre-injection skin thickness, left foot): .69 ± .18
2 week-old chickens; Trial 3, IBDV strain STC
  CBH-2 = (skin thickness, PHA-P injected foot) − (skin thickness, PSS injected foot): .31 ± .07
  CBH-1 = (skin thickness at 12 h post-injection, left foot) − (pre-injection skin thickness, left foot): .34 ± .06
2 week-old chickens; vs saline control group
  CBH response: small reduction
